Source: publication PMC6934184, “Selective DNA-PKcs inhibition extends the therapeutic index of localized radiotherapy and chemotherapy” (The Journal of Clinical Investigation, 2019)

Target: T1, PDK1 (Homo sapiens, UniProt O15530)
T1 construct: purchased Thermo Fisher Scientific (Life Technologies) SelectScreen
Assay: SelectScreen Z'LYTE
Assay type: biochemical
Summary of the method: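 SelectScreen broad panel; activity (Z'LYTE, Adapta) plus binding formats. ATP: Km app for CSF1R Z'LYTE; 10 for CAMK1 Adapta. Readout = % per kinase.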

T1 sequence (O15530 whole entry): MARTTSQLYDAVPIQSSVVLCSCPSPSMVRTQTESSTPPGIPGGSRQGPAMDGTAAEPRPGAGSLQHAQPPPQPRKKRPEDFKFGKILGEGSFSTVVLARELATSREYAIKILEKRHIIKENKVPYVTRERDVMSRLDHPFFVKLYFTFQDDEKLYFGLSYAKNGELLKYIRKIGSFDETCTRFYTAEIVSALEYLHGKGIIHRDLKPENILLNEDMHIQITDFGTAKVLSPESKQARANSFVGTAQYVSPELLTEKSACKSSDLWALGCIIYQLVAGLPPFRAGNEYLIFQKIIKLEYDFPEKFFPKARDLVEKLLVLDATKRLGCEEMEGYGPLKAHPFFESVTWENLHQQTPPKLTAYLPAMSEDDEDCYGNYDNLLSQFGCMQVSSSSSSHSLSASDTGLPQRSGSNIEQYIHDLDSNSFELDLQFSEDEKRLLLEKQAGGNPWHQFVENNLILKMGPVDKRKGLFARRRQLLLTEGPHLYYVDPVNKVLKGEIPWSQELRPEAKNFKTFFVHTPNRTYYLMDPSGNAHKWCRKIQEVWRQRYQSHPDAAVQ

SMILES: CN(C(=O)CN1CCOCC1)c1ccc2sc3c(-c4cccc5c(=O)cc(N6CC7CCC(C6)O7)oc45)cccc3c2c1 [NU5455]
- inhibition at 1 µM: -7.3%
